Test results published in patent US8354414B2, “Substituted bicyclic pyrimidines” (Cephalon, Inc, priority 2006, dated 2013).
Read-outs that look alike come from different tables or passages of the source.

Key:
[1] = target: T1, CDK5/GST-p25 (Homo sapiens, UniProt Q00535); test: Inhibition of CDK5/GST-p25 kinase activity (ELISA with time-resolved fluorescence readout); format: biochemical
T1 construct: The final construct, encoding for full-length human CDK5; made in house; host or cells: Sf21 insect cells (baculovirus co-infection)
T1 sequence (Q00535 whole entry): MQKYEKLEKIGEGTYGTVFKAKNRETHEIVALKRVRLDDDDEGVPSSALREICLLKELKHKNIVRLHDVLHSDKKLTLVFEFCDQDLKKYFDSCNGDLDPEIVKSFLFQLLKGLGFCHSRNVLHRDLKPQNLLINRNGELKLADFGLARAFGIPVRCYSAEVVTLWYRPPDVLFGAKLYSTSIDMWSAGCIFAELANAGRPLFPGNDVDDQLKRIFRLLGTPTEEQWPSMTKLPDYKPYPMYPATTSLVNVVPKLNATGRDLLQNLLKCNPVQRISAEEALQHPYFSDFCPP
T1 sequence (Q15078 108-307 partner limits assumed): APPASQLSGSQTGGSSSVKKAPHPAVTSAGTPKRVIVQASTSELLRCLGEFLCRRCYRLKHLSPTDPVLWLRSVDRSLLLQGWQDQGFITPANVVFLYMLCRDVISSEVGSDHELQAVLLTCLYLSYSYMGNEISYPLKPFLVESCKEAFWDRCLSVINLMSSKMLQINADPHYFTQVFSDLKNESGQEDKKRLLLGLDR
Procedure, shortened: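 The substrate, GST-Rb(773-928), was immobilised on plates and phosphorylated for 20 min at 37 °C by 2 ng/ml CDK5/GST-p25 in HEPES pH 7.2 with 10 µM ATP and 10 mM MgCl2. Both proteins were human and co-expressed in insect cells. Ser-780 phosphorylation was read by europium time-resolved fluorescence and converted to IC50.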

[2] = target: T2, His6-GSK-3β (Homo sapiens, UniProt P49841); test: Inhibition of His6-GSK-3β kinase activity (ELISA-based format, time-resolved fluorescence readout); format: biochemical; settings: read-out: GSK3β IC50
T2 construct: made in house; host or cells: Sf21 insect cells (baculovirus)
T2 sequence (P49841 2-419): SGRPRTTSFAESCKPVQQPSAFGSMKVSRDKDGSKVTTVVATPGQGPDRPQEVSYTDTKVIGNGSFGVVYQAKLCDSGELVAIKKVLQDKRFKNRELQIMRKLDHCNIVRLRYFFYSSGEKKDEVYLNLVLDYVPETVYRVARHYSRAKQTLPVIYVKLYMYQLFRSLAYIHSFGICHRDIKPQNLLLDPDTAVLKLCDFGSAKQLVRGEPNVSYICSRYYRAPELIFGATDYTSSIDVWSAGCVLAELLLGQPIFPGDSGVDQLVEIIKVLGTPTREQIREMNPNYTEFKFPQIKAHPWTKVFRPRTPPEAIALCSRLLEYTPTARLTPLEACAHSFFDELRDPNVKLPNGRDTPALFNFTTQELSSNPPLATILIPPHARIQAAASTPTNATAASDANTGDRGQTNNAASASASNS
Procedure, shortened: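 Plate-bound recombinant GST-Rb substrate was phosphorylated for 30 min at 37° C by baculovirus-expressed His6-GSK-3β (200 ng/ml) at 20 μM ATP, 10 mM MgCl2, 2.5% DMSO. Europium time-resolved fluorescence of anti-phospho-Ser780 Rb signal gave inhibition, fitted to IC50.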

Row | IC50 ([1]; class symbols) [µM] | IC50 ([2]; class symbols) [µM] | melting point | inhibition at 10 µM [1] [%] | IC50 ([1]; numeric bounds) [µM] | IC50 ([2]; numeric bounds) [µM] | SMILES
1 | < 0.3 | < 0.3 | 272 to 276 °C | – | – | – | CCCn1cc2c(C3C(=O)Nc4ccc(Br)cc43)nc(NCCN)nc2n1 (stereo not drawn) [Example 200, 3-[6-(2-Amino-ethylamino)-2-propyl-2H-pyrazolo [3,4-d]pyrimidin-4-yl]-5-bromo-1,3-dihydro-indol-2-one]
2 | < 0.3 | < 0.3 | 286 to 290 °C | – | – | – | CCCn1cc2c(C3C(=O)Nc4ccc(Br)cc43)nc(NCCCN(C)C)nc2n1 (stereo not drawn) [Example 198, 5-Bromo-3-[6-(3-dimethylamino-propylamino)-2-propyl-2H-pyrazolo [3,4-d]pyrimidin-4-yl]-1,3-dihydro-indol-2-one]
3 | > 10 | < 0.3 | > 300 °C | – | – | – | O=C1Nc2ccc(C(F)(F)F)cc2C1c1nc(NCCc2ccccn2)nc2nn(C3CCCC3)cc12 (stereo not drawn) [Example 247, 3-[2-Cyclopentyl-6-(2-pyridin-2-yl-ethylamino)-2H-pyrazolo[3,4-d]pyrimidin-4-yl]-5-trifluoromethyl-1,3-dihydro-indol-2-one]
4 | > 10 | 0.3 to 3 | 145 to 148 °C | – | – | – | CN(C)CCNc1nc(C2C(=O)Nc3ccc(Cl)cc32)c2cn(C3CCCC3)nc2n1 (stereo not drawn) [Example 376, 5-Chloro-3-[2-cyclopentyl-6-(2-dimethylamino-ethylamino)-2H-pyrazolo [3,4-d]pyrimidin-4-yl]-1,3-dihydro-indol-2-one]
5 | < 0.3 | < 0.3 | 247 to 251 °C | – | – | – | CCOCCn1cc2c(C3C(=O)Nc4ccc(Br)cc43)nc(NCCN(C)C)nc2n1 (stereo not drawn) [Example 237, 5-Bromo-3-[6-(2-dimethylamino-ethylamino)-2-(2-ethoxy-ethyl)2H-pyrazolo[3,4-d]pyrimidin-4-yl]-1,3-dihydro-indol-2-one]
6 | – | < 0.3 | 211 to 213 °C | – | > 3 | – | CN(C)CCNc1nc(C2C(=O)Nc3ccc(C(F)(F)F)cc32)c2cn(C3CCCC3)nc2n1 (stereo not drawn) [Example 251, 3-[2-Cyclopentyl-6-(2-dimethylamino-ethylamino)-2H-pyrazolo[3,4-d]pyrimidin-4-yl]-5-trifluoromethyl-1,3-dihydro-indol-2-one]
7 | – | > 10 | 259 to 263 °C | – | > 3 | – | CCCn1cc2c(C3C(=O)Nc4ccc(S(=O)(=O)N(C)C)cc43)nc(NCCN(C)C)nc2n1 (stereo not drawn) [Example 205, 3-[6-(2-Dimethylamino-ethylamino)-2-propyl-2H-pyrazolo [3,4-d]pyrimidin-4-yl]-2-oxo-2,3-dihydro-1H-indole-5-sulfonic acid dimethylamide]
8 | > 10 | – | 303 to 305 °C | – | – | > 3 | CC(C)Nc1nc(C2C(=O)Nc3ccccc32)c2cn(C3CCCC3)nc2n1 (stereo not drawn) [Example 245, 3-(2-Cyclopentyl-6-isopropylamino-2H-pyrazolo[3,4-d]pyrimidin-4-yl)-1,3-dihydro-indol-2-one]
9 | < 0.3 | < 0.3 | > 300 °C | – | – | – | COCCn1cc2c(C3C(=O)Nc4ccc(Br)cc43)nc(NC[C@@H](C)O)nc2n1 (stereo partly drawn) [Example 231, 5-Bromo-3-[6-((R)-2-hydroxy-propylamino)-2-(2-methoxy-ethyl)-2H-pyrazolo[3,4-d]pyrimidin-4-yl]-1,3-dihydro-indol-2-one]
10 | < 0.3 | < 0.3 | 250.5 to 254 °C | – | – | – | CC(C)Cn1cc2c(C3C(=O)Nc4ccc(Br)cc43)nc(NCCCN(C)C)nc2n1 (stereo not drawn) [Example 269, 5-Bromo-3-[6-(3-dimethylamino-propylamino)-2-isobutyl-2H-pyrazolo [3,4-d]pyrimidin-4-yl]-1,3-dihydro-indol-2-one]
11 | > 10 | – | > 300 °C | – | – | > 3 | CCCn1cc2c(C3C(=O)Nc4ccc(Br)cc43)nc(Cl)nc2n1 (stereo not drawn) [Example 188, 5-Bromo-3-(6-chloro-2-propyl-2H-pyrazolo[3,4-d]pyrimidin-4-yl)-1,3-dihydro-indol-2-one]
12 | < 0.3 | < 0.3 | 310 °C (dec.) | – | – | – | CCCn1cc2c(C3C(=O)Nc4ccc(Br)cc43)nc(NC[C@@H](C)O)nc2n1 (stereo partly drawn) [Example 195, 5-Bromo-3-[6-((R)-2-hydroxy-propylamino)-2-propyl-2H-pyrazolo [3,4-d]pyrimidin-4-yl]-1,3-dihydro-indol-2-one]

More lines, now with the values behind:

Row | SMILES | IC50 ([1]; class symbols) [µM] | IC50 ([2]; class symbols) [µM] | melting point | inhibition at 10 µM [1] [%] | IC50 ([1]; numeric bounds) [µM] | IC50 ([2]; numeric bounds) [µM]
13 | O=C1Nc2c(cc([N+](=O)[O-])cc2[N+](=O)[O-])C1c1ncnc2c1cnn2C1CCCC1 (stereo not drawn) [Example 60, 3-(1-cyclopentyl-1H-pyrazolo[3,4-d]pyrimidin-4-yl)-5,7-dinitro-1,3-dihydro-indol-2-one] | > 10 | > 10 | 242 to 246 °C | – | – | –
14 | CCCn1cc2c(C3C(=O)Nc4ccc(Cl)cc43)ncnc2n1 (stereo not drawn) [Example 98, 5-Chloro-3-(2-propyl-2H-pyrazolo[3,4-d]pyrimidin-4-yl)-1,3-dihydro-indol-2-one] | < 0.3 | < 0.3 | 302 to 306 °C | – | – | –
15 | O=C1Nc2ccc(Br)cc2C1c1ncnc2nn(C3CCCCC3)cc12 (stereo not drawn) [Example 46, 5-Bromo-3-(2-cyclohexyl-2H-pyrazolo[3,4-d]pyrimidin-4-yl)-1,3-dihydro-indol-2-one] | < 0.3 | < 0.3 | 285 to 290 °C | – | – | –
16 | CCNc1nc(C2C(=O)Nc3ccc(C#N)cc32)c2cn(C3CCCC3)nc2n1 (stereo not drawn) [Example 166, 3-(2-cyclopentyl-6-ethylamino-2H-pyrazolo[3,4-d]pyrimidin-4-yl)-2-oxo-2,3-dihydro-1H-indole-5-carbonitrile] | – | < 0.3 | 373 °C (dec.) | 41 | – | –
17 | [N-]=[N+]=NCCCn1cc2c(C3C(=O)Nc4ccc(Br)cc43)ncnc2n1 (stereo not drawn) [Example 89, 3-[2-(3-azido-propyl)-2H-pyrazolo[3,4-d]pyrimidin-4-yl]-5-bromo-1,3-dihydro-indol-2-one] | < 0.3 | < 0.3 | 252 to 256 °C | – | – | –
18 | CNc1nc(C2C(=O)Nc3ccccc32)c2cn(C3CCCC3)nc2n1 (stereo not drawn) [Example 154, 3-(2-cyclopentyl-6-methylamino-2H-pyrazolo [3,4-d]pyrimidin-4-yl)-1,3-dihydro-indol-2-one] | – | 0.3 to 3 | > 300 °C | 68 | – | –
19 | O=C1Nc2ccc(C(F)(F)F)cc2C1c1nc(NCc2cccnc2)nc2nn(C3CCCC3)cc12 (stereo not drawn) [Example 161, 3-{2-cyclopentyl-6-[(pyridin-3-ylmethyl)-amino]-2H-pyrazolo [3,4-d]pyrimidin-4-yl}-5-trifluoromethyl-1,3-dihydro-indol-2-one] | – | < 0.3 | > 300 °C | 68 | – | –
20 | O=C1Nc2ccc(Br)cc2C1c1ncnc2c1cnn2C1CCCCC1 (stereo not drawn) [Example 75, 5-Bromo-3-(1-Cyclohexyl-1H-pyrazolo[3,4-d]pyrimidin-4-yl)-1,3-dihydro-indol-2-one] | > 10 | > 10 | 305 to 308 °C | – | – | –
21 | N#Cc1cccc2c1NC(=O)C2c1ncnc2c1cnn2C1CCCCC1 (stereo not drawn) [Example 70, 3-(1-Cyclohexyl-1H-pyrazolo [3,4-d]pyrimidin-4-yl)-2-oxo-2,3-dihydro-1H-indole-7-carbonitrile] | > 10 | > 10 | > 300 °C | – | – | –
22 | Cn1ncc2c(C3C(=O)Nc4ccc(C#N)cc43)ncnc21 (stereo not drawn) [Example 108, 3-(1-methyl-1H-pyrazolo[3,4-d]pyrimidin-4-yl)-2-oxo-2,3-dihydro-1H-indole-5-carbonitrile] | < 0.3 | > 10 | > 300 °C (dec.) | – | – | –
23 | N#Cc1ccc2c(c1)C(c1nc(N(CCO)CCO)nc3nn(C4CCCC4)cc13)C(=O)N2 (stereo not drawn) [Example 168, 3-{6-[bis(2-hydroxyethyl)amino]-2-cyclopentyl-2H-pyrazolo[3,4-d]pyrimidin-4-yl}-2-oxo-2,3-dihydro-1H-indole-5-carbonitrile] | < 0.3 | < 0.3 | 243 to 243.5 °C | – | – | –
24 | N#Cc1ccc2c(c1)C(c1nc(OCCc3cccnc3)nc3nn(C4CCCC4)cc13)C(=O)N2 (stereo not drawn) [Example 164, 3-[2-cyclopentyl-6-(2-pyridin-3-yl-ethoxy)-2H-pyrazolo [3,4-d]pyrimidin-4-yl]-2-oxo-2,3-dihydro-1H-indole-5-carbonitrile] | > 10 | < 0.3 | 302 to 304 °C | – | – | –
25 | CC(=O)NCCNc1nc(C2C(=O)Nc3ccc(C#N)cc32)c2cn(C3CCCC3)nc2n1 (stereo not drawn) [Example 151, 3-(6-(2-acetylamino-ethylamino)-2-cyclopentyl-2H-pyrazolo [3,4-d]pyrimidin-4-yl)-2-oxo-2,3-dihydro-1H-indole-5-carbonitrile] | < 0.3 | < 0.3 | > 300 °C | – | – | –
26 | O=C1Nc2ccc(C(F)(F)F)cc2C1c1ncnc2nn(C3CCCC3)cc12 (stereo not drawn) [Example 34, 3-(2-Cyclopentyl-2H-pyrazolo [3,4-d]pyrimidin-4-yl)-5-trifluoromethyl-1,3-dihydro-indol-2-one] | < 0.3 | < 0.3 | 292 to 293 °C | – | – | –
27 | CCCn1cc2c(C3C(=O)Nc4ccc(C#N)cc43)ncnc2n1 (stereo not drawn) [Example 96, 3-(2-propyl-1H-pyrazolo[3,4-d]pyrimidin-4-yl)-2-oxo-2,3-dihydro-1H-indole-5-carbonitrile] | < 0.3 | < 0.3 | > 300 °C | – | – | –
